Tests used:
liver organoids = experiment: APAP toxicity testing and N-acetyl-L-cysteine intervention in liver organoids; type: cell-based, human; settings: 10 mM APAP plus 20 mM NAC
[1] = system: cells on PEGSSDA hydrogel; experiment: Proliferation on PEGSSDA hydrogel softened with NAC, MTS assay; type: cell-based; settings: gels softened on day 4 with NAC 100 mmol for 60 minutes, vs control gels
Method: In a 96 well plate, we placed 10,000 cells on two sets of nine wells of 50 ul PEGSSDA hydrogel and the wells were filled with DMEM high glucose and cultured for a week. On day 4, one set of gels were softened using NAC 100 mmol for 60 minutes. Now proliferation of cells was compared between control gels and softened gels using MTS assays on day 7.

U138 spheroids = experiment: WNT pathway modulation in GBM U138 spheroids in hydrogel; type: cell-based
Method: For the WNT experiments, spheroids of GBM U 138(ATCC® HTB-16™) cell line were formed by hanging drop method in a 96 well plate by using 10,000 cells per drop of 20 μl, which were cultured for 72 hours in high glucose DMEM before being harvested to be setup in HyStem HP-Hydrogels. The spheroids were placed sandwiched between two layers of gel of total volume of 250 μl. The spheroids were then given different media compositions. Normal high glucose media being the control, the spheroids behaviour in WNT pathway agonist BIO and WNT pathway antagonist XAV939 were studied.
Experiments were conducted with single cell cancer spheroids with U138 cells. The WNT pathway was manipulated by adding either an agonist of the WNT pathway BIO or an antagonist of the WNT pathway XAV939 to the media.

[2] = cited from earlier work
[3] = system: cells on S3 stiff hydrogel; experiment: Proliferation on S3 stiff hydrogel softened with collagenase, MTS assay; type: cell-based; settings: gels softened on day 4 with collagenase (1:10 dilution) for 10 minutes, vs control gels
Method: In a 96 well plate, we placed 10,000 cells on two sets of nine wells of 50 ul S3 stiff hydrogel and the wells were filled with DMEM high glucose and cultured for a week. On day 4, one set of gels were softened using collagenase (1:10 dilution) for 10 minutes. Now proliferation of cells was compared between contol gels and softened gels using MTS assays on day 7.

## CC(=O)N[C@@H](CS)C(=O)O [NAC, N-acetyl-L-cysteine]
Liver organoids
  detected urea production: increased over time
Liver organoids; day 14
  detected albumin production: 98 ng/mL
[1]
  proliferation of cells (MTS, day 7): Reduced proliferation

## Oc1nc(-c2ccc(C(F)(F)F)cc2)nc2c1CSCC2 [XAV939]
U138 spheroids; WNT pathway antagonist added to the media
  cancer cells' phenotype (morphology): more epithelial appearance than a mesenchymal appearance

## O=C1Nc2cc(Br)ccc2/C1=C1/Nc2ccccc2/C1=N\O [BIO]
U138 spheroids; WNT pathway agonist added to the media
  proliferation and migration in the spheroids: shut down proliferation and migration

## Cn1nnc2c(C(N)=O)ncn2c1=O [TMZ, temozolomide]
[2]; CSF vs plasma
  concentrations in the cerebrospinal fluid (CSF) relative to plasma: approximately 20%
[2]; CSF
  peak CSF concentrations: 26 ± 4 µM

## collagenase
[3]
  proliferation of cells (MTS, day 7): the same results were observed

From patent US11959095B2, “Compositions, cell constructs, and methods of making and using the same” (Wake Forest University Health Sciences, priority 2016, dated 2024)
